`CCOC(=O)c1c(Cn2cncn2)nc2sc3c(c2c1-c1ccc(OC)c(OC)c1)CCNC3` [Example 21A, ethyl 4-(3,4-dimethoxyphenyl)-5,6,7,8-tetrahydro-2-(1,2,4-triazol-1-ylmethyl)thieno[2,3-b:5,4-c′]dipyridine-3-carboxylate] returned a melting point of 164 to 165 °C.

Consider `CCOC(=O)c1c(Cc2nc[nH]n2)nc2sc3cnccc3c2c1-c1ccc(OC)c(OC)c1` [Example 22A, ethyl 4-(3,4-dimethoxyphenyl)-2-(1,2,4-triazol-ylmethyl)thieno[2,3-b:5,4-c′]dipyridine-3-carboxylate], for which the melting point is 172 to 174 °C.

With `COc1ccc(-c2c(Cl)c(CNC(=O)c3cccnc3)nc3sc4c(c23)CCN(Cc2ccccc2)C4)cc1OC` [Example 22B, 7-benzyl-3-chloro-4-(3,4-dimethoxyphenyl)-2-(nicotinoylaminomethyl)-5,6,7,8-tetrahydrothieno[2,3-b:5,4-c′]dipyridine], the melting point is 124 to 125 °C.

Molecule `CCOC(=O)c1c(CCc2nccn2C)nc2sc3c(c2c1-c1ccc(OC)c(OC)c1)CCN(C(=O)c1ccccc1)C3` [Example 23A, ethyl 7-benzoyl-4-(3,4-dimethoxyphenyl)-5,6,7,8-tetrahydro-2-[2-(1-methylimidazol-2-yl)ethyl]thieno[2,3-b:5,4-c′]dipyridine-3-carboxylate] had a melting point of 170 to 217 °C.

The molecule `CCOC(=O)c1c(CCc2c[nH]nn2)nc2sc3c(c2c1-c1ccc(OC)c(OC)c1)CCN(C(=O)c1ccccc1)C3` [Example 24A, ethyl 7-benzoyl-4-(3,4-dimethoxyphenyl)-5,6,7,8-tetrahydro-2-[2-(1,2,3-triazol-4-yl)ethyl]thieno[2,3-b:5,4-c′]dipyridine-3-carboxylate] had a melting point of 184 to 185 °C.

Molecule `CCOC(=O)c1c(CN(C)O)nc2sc3c(c2c1-c1ccc(OC)c(OC)c1)CCN(C(=O)c1ccccc1)C3` [Example 25A, ethyl 7-benzoyl-4-(3,4-dimethoxyphenyl)-2-(N-hydroxy-N-methylaminomethyl)-5,6,7,8-tetrahydrothieno[2,3-b:5,4-c′]dipyridine-3-carboxylate] yielded a melting point of 129 to 130 °C.

Regarding `CCOC(=O)c1c(CCn2cncn2)nc2sc3c(c2c1-c1ccc(OC)c(OC)c1)CCN(C(=O)c1ccc(Cl)cc1)C3` [Example 26A, ethyl 7-(4-chlorobenzoyl)-4-(3,4-dimethoxyphenyl)-5,6,7,8-tetrahydro-2-[2-(1,2,4-triazol-1-yl)ethyl]thieno[2,3-b:5,4-c′]dipyridine-3-carboxylate], the melting point is 195 to 197 °C.

`COc1ccc(-c2c(Cl)c(Cn3cncn3)nc3sc4c(c23)CCN(Cc2ccccc2)C4)cc1OC` [Example 26B, 7-benzyl-3-chloro-4-(3,4-dimethoxyphenyl)-5,6,7,8-tetrahydro-2-(1,2,4-triazol-1-ylmethyl)thieno[2,3-b:5,4-c′]dipyridine] came in with a melting point of 165 to 166 °C.

The molecule `CCOC(=O)c1c(CCCn2cncn2)nc2sc3cnccc3c2c1-c1ccc(OC)c(OC)c1` [Example 29A, ethyl 4-(3,4-dimethoxyphenyl)-2-[3-(1,2,4-triazol-1-yl)propyl]thieno[2,3-b:5,4-c′]dipyridine-3-carboxylate] yielded a melting point of 127 to 129 °C.

With `CCOC(=O)c1c(CCCCn2cncn2)nc2sc3cnccc3c2c1-c1ccc(OC)c(OC)c1` [Example 30A, ethyl 4-(3,4-dimethoxyphenyl)-2-[4-(1,2,4-triazol-1-yl)butyl]thieno[2,3-b:5,4-c′]dipyridine-3-carboxylate], the melting point fell in the range of 118 to 119 °C.

`CCOC(=O)c1c2c(cn1CN(CC)CC)C1=C(NC(C(C)=O)CC1)[SH]2c1ccc(OC)c(OC)c1` (stereo not shown) [Example 32A, ethyl 2-acetyl-8-(3,4-dimethoxyphenyl)-6-diethylaminomethyl-2,3-dihydro-1H-pyrrolo[3′,4′:4,5]thieno[2,3-b]pyridine-7-carboxylate] registered a melting point of 123 to 124 °C.

In the case of `COc1ccc(-c2c(Cl)c(COC3=NN(c4ccccc4)CC3)nc3sc4c(c23)CCN(Cc2ccccc2)C4)cc1OC` [Example 32B, 7-benzyl-3-chloro-4-(3,4-dimethoxyphenyl)-2-(1-phenyl-2-pyrazolin-3-yloxymethyl)-5,6,7,8-tetrahydrothieno[2,3-b:5,4-c′]dipyridine], the melting point was 157 to 158 °C.

Turning to `CCOC(=O)c1c(CN(CC)CC)nc2sc3c(c2c1-c1ccc(CC)cc1)CCN(C(=O)Nc1ccccc1)C3` [Example 36A], the melting point lay in the range of 112 to 114 °C.

Molecule `COc1ccc(-c2c(Cl)c(CN3CCCC3=O)nc3sc4cnccc4c23)cc1OC` [Example 36B, 3-chloro-4-(3,4-dimethoxyphenyl)-2-(2-oxopyrrolidin-1-ylmethyl)thieno[2,3-b:5,4-c′]dipyridine] showed a melting point of 228 to 230 °C.

In the case of `CCOC(=O)c1c(CN(CC)CC)nc2sc3c(c2c1-c1ccc(CC)cc1)CCN(OC(=O)CC)C3` [Example 39A], the melting point lay in the range of 97 to 99 °C.

The molecule `CCOC(=O)c1c(CN(CC)CC)nc2sc3c(c2c1-c1ccc(CC)cc1)CCN(S(=O)(=O)c1ccccc1)C3` [Example 42A] returned a melting point of 140 to 141 °C.

The molecule `CCOC(=O)c1c(Cn2cncn2)nc2sc3cnccc3c2c1-c1ccc(OC)c(OC)c1` [Example 47A, ethyl 4-(3,4-dimethoxyphenyl)-2-(1,2,4-triazol-1-ylmethyl)thieno[2,3-b:5,4-c′]dipyridine-3-carboxylate] yielded a melting point of 172 to 174 °C.

The molecule `CCOC(=O)c1c(CN(CC)CC)nc2sc3cnccc3c2c1-c1ccc(O)c(OC)c1` [Example 51A, ethyl 2-diethylaminomethyl-4-(4-hydroxy-3-methoxyphenyl)thieno[2,3-b:5,4-c′]dipyridine-3-carboxylate] had a melting point of 179 to 181 °C.

Take `CCOC(=O)c1c(CN2C(=O)CN(C)C2=O)nc2sc3c(c2c1-c1ccc(OC)c(OC)c1)CCN(C(=O)c1ccccc1)C3` [Example 52A, ethyl 7-benzoyl-4-(3,4-dimethoxyphenyl)-2-(1-methylhydantoin-3-ylmethyl)-5,6,7,8-tetrahydrothieno[2,3-b:5,4-c′]dipyridine-3-carboxylate]: the melting point is 185 to 187 °C.

In the case of `CCOC(=O)c1c(CN(CC)CC)nc2sc3c(c2c1-c1ccc(OC)c(OC)c1)CN(C(=O)c1ccc(Cl)cc1)CC3` [Example 53A, ethyl 6-(4-chlorobenzoyl)-2-diethylaminomethyl-4-(3,4-dimethoxyphenyl)-5,6,7,8-tetrahydrothieno[2,3-b:4,5-c′]dipyridine-3-carboxylate], the melting point fell in the range of 91 to 92 °C.

Molecule `CCOC(=O)c1c(CN(CC)CC)nc2sc3ccncc3c2c1-c1ccc(OC)c(OC)c1` [Example 55A, ethyl 2-diethylaminomethyl-4-(3,4-dimethoxyphenyl)thieno[2,3-b:4,5-c′]dipyridine-3-carboxylate] came in with a melting point of 141 to 142 °C.

Molecule `CCOC(=O)c1c(Cn2cncn2)nc2sc3c(c2c1-c1ccc(OC)c(OC)c1)CCCN3C(=O)OCc1ccccc1` [Example 56A, ethyl 8-benzyloxycarbonyl-4-(3,4-dimethoxyphenyl)-5,6,7,8-tetrahydro-2-(1,2,4-triazol-1-ylmethyl)thieno[2,3-b:5,4-b′]dipyridine-3-carboxylate] registered a melting point of 184 to 185 °C.

In turn, `CCOC(=O)c1c(CN(CC)CC)nc2sc3c(c2c1-c1ccc(OC)c(OC)c1)CCCN3C(=O)OCc1ccccc1` [Example 58A, ethyl 8-benzyloxycarbonyl-2-diethylaminomethyl-4-(3,4-dimethoxyphenyl)-5,6,7,8-tetrahydrothieno[2,3-b:5,4-b′]dipyridine-3-carboxylate] came in with a melting point of 138 to 139 °C.

On to `CCOC(=O)c1c(Cn2cncn2)nc2sc3c(c2c1-c1ccc(OC)c(OC)c1)CN(C(=O)OCc1ccccc1)CC3` [Example 59A, ethyl 6-benzyloxycarbonyl-4-(3,4-dimethoxyphenyl)-5,6,7,8-tetrahydro-2-(1,2,4-triazol-1-ylmethyl)thieno[2,3-b:4,5-c′]dipyridine-3-carboxylate], for which the melting point lay in the range of 169 to 170 °C.

Take `CCOC(=O)c1c(Cn2cncn2)nc2sc3c(c2c1-c1ccc(OC)c(OC)c1)CNCC3` [Example 63A, ethyl 4-(3,4-dimethoxyphenyl)-5,6,7,8-tetrahydro-2-(1,2,4-triazol-1-ylmethyl)thieno[2,3-b:4,5-c′]dipyridine-3-carboxylate]: the melting point lay within 180 to 181 °C.

For the molecule `CCOC(=O)c1c(CN(CC)CC)nc2sc3ncccc3c2c1-c1ccc(OC)c(OC)c1` [Example 64A, ethyl 2-diethylaminomethyl-4-(3,4-dimethoxyphenyl)thieno[2,3-b:5,4-b′]dipyridine-3-carboxylate], the melting point was 156 to 157 °C.

`CCOC(=O)c1c(Cn2cncn2)nc2sc3ncccc3c2c1-c1ccc(OC)c(OC)c1` [Example 65A, ethyl 4-(3,4-dimethoxyphenyl)-2-(1,2,4-triazol-1-ylmethyl)thieno[2,3-b:5,4-b′]dipyridine-3-carboxylate] showed a melting point of 180 to 182 °C.

Take `CCOC(=O)c1c(Cn2cncn2)nc2sc3ccncc3c2c1-c1ccc(OC)c(OC)c1` [Example 66A, ethyl 4-(3,4-dimethoxyphenyl)-2-(1,2,4-triazol-1-ylmethyl)thieno[2,3-b:4,5-c′]dipyridine-3-carboxylate]: the melting point is 166 to 167 °C.

Values taken from patent US6403606B1, “Thienopyridine derivatives and their use” (Takeda Chemical Industries Ltd., priority 1996, dated 2002).
